Test results reported in patent publication US9580444B2, “Polycyclic pyrazolinone derivative and herbicide comprising same as effective component thereof” (priority 2013, dated 2017).

How the values were obtained:
Assay type in all cases: in vivo
corn = test: Test Example-4: phytotoxicity by a foliage treatment after weeds are generated under upland field conditions; conditions: 500 g a.i/ha, foliage treatment after emergence, about 14 days after treatment, score 0-5
Procedure, shortened: (§1)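 Weed seeds were sown in upland soil, covered with about 0.5 cm soil and grown 14 days with watering. Diluted wettable powder or emulsifiable concentrate was then sprayed uniformly on foliage at a set dosage in 4000 L water/ha. Weed control and corn injury were scored 0–5 about 14 days later.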

[1] = tested on: Eleocharis acicularis (needle spikerush); test: Test Example-1: herbicidal effect by a treatment before weeds are generated under submerged conditions; conditions: 500 g a.i/ha, pre-emergence treatment, about 15 days after treatment, score 0-5
Procedure, shortened: (§2)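 Paddy soil in cups was puddled, seeded with the weeds and kept flooded; compound as wettable powder or emulsifiable concentrate was diluted and applied into the water on the seeding day at a set dosage. Effect was scored about 15 days later on a 0–5 scale.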

[2] = tested on: Scirpus juncoides (bulrush); test: as above; conditions: 500 g a.i/ha, pre-emergence treatment, about 15 days after treatment, score 0-5
Procedure, shortened: as §2

[3] = tested on: Echinochloa oryzicola (barnyard grass); test: as above; conditions: 500 g a.i/ha, pre-emergence treatment, about 15 days after treatment, score 0-5
Procedure, shortened: as §2

[4] = tested on: other annual broad leaf weeds (Lindernia procumbens, Rotala indica, Elatine triandra); test: as above; conditions: 500 g a.i/ha, pre-emergence treatment, about 15 days after treatment, score 0-5
Procedure, shortened: as §2

[5] = tested on: Cyperus difformis (smallflower umbrella plant); test: as above; conditions: 500 g a.i/ha, pre-emergence treatment, about 15 days after treatment, score 0-5
Procedure, shortened: as §2

[6] = tested on: Monochoria vaginalis (monochoria); test: as above; conditions: 500 g a.i/ha, pre-emergence treatment, about 15 days after treatment, score 0-5
Procedure, shortened: as §2

[7] = tested on: Chenopodium album (common lambsquarters); test: Test Example-4: herbicidal effect by a foliage treatment after weeds are generated under upland field conditions; conditions: 500 g a.i/ha, foliage treatment after emergence, about 14 days after treatment, score 0-5
Procedure, shortened: as §1

[8] = tested on: Amaranthus viridis (green amaranthus); test: as above; conditions: 500 g a.i/ha, foliage treatment after emergence, about 14 days after treatment, score 0-5
Procedure, shortened: as §1

[9] = tested on: Abutilon theophrasti (velvetleaf); test: as above; conditions: 500 g a.i/ha, foliage treatment after emergence, about 14 days after treatment, score 0-5
Procedure, shortened: as §1

Row | SMILES | Phytotoxicity Corn (corn) | Herbicidal effect Eleocharis acicularis [1] | Herbicidal effect Scirpus juncoides [2] | Herbicidal effect Echinochloa oryzicola [3] | Herbicidal effect Broadleaf weed [4] | Herbicidal effect Cyperus difformis [5] | Herbicidal effect Monochoria vaginalis [6] | Herbicidal effect Chenopodium album [7] | Herbicidal effect Amaranthus viridis [8] | Herbicidal effect Abutilon theophrast [9]
1 | Cc1cc(-c2c(Cl)n3n(c2=O)CCCC3)c(F)cc1Cl [Example 1-130] | 1 (Herbicidal effect/phytotoxicity was 10% to 30%) | 5 (Herbicidal effect/phytotoxicity was 90% or greater) | 5 (Herbicidal effect/phytotoxicity was 90% or greater) | 5 (Herbicidal effect/phytotoxicity was 90% or greater) | 5 (Herbicidal effect/phytotoxicity was 90% or greater) | 5 (Herbicidal effect/phytotoxicity was 90% or greater) | 5 (Herbicidal effect/phytotoxicity was 90% or greater) | 5 (Herbicidal effect/phytotoxicity was 90% or greater) | 5 (Herbicidal effect/phytotoxicity was 90% or greater) | 5 (Herbicidal effect/phytotoxicity was 90% or greater)
2 | CC(C)COc1cc(-c2c(Cl)n3n(c2=O)CCCC3)c(F)cc1Cl [Example 1-156] | 2 (Herbicidal effect/phytotoxicity was 30% to 50%) | 5 (Herbicidal effect/phytotoxicity was 90% or greater) | 5 (Herbicidal effect/phytotoxicity was 90% or greater) | 5 (Herbicidal effect/phytotoxicity was 90% or greater) | 5 (Herbicidal effect/phytotoxicity was 90% or greater) | 5 (Herbicidal effect/phytotoxicity was 90% or greater) | 5 (Herbicidal effect/phytotoxicity was 90% or greater) | 5 (Herbicidal effect/phytotoxicity was 90% or greater) | 5 (Herbicidal effect/phytotoxicity was 90% or greater) | 5 (Herbicidal effect/phytotoxicity was 90% or greater)
3 | N#CCOc1cc(-c2c(Cl)n3n(c2=O)CCCC3)c(F)cc1Cl [Example 1-171] | 3 (Herbicidal effect/phytotoxicity was 50% to 70%) | 5 (Herbicidal effect/phytotoxicity was 90% or greater) | 5 (Herbicidal effect/phytotoxicity was 90% or greater) | 5 (Herbicidal effect/phytotoxicity was 90% or greater) | 5 (Herbicidal effect/phytotoxicity was 90% or greater) | 5 (Herbicidal effect/phytotoxicity was 90% or greater) | 5 (Herbicidal effect/phytotoxicity was 90% or greater) | 5 (Herbicidal effect/phytotoxicity was 90% or greater) | 5 (Herbicidal effect/phytotoxicity was 90% or greater) | 5 (Herbicidal effect/phytotoxicity was 90% or greater)
4 | CCOC(=CC(=O)OCC(C)C)COc1cc(-c2c(Cl)n3n(c2=O)CCCC3)c(F)cc1Cl [Example 2-27] | 0 (Herbicidal effect/phytotoxicity was 0% to 10%) |  |  |  |  |  |  | 5 (Herbicidal effect/phytotoxicity was 90% or greater) | 5 (Herbicidal effect/phytotoxicity was 90% or greater) | 5 (Herbicidal effect/phytotoxicity was 90% or greater)
5 | CC1(COc2cc(-c3c(Cl)n4n(c3=O)CCCC4)c(F)cc2Cl)CC(c2ccc(Cl)cc2)=NO1 (centres unmarked) [Example 4-8] | 2 (Herbicidal effect/phytotoxicity was 30% to 50%) |  |  |  |  |  |  | 5 (Herbicidal effect/phytotoxicity was 90% or greater) | 5 (Herbicidal effect/phytotoxicity was 90% or greater) | 5 (Herbicidal effect/phytotoxicity was 90% or greater)
